From US11690858B1, “Neuroprotective mixture for mitigating the harmful effects of ischemic stroke” (Tricerapro Holding, LLC, priority 2018, dated 2023)
Several values for one entry are separate records, joined by “and”; a condition that tells them apart may be missing. Equal entries are not always repeated.

Columns and labels:
[1] = tested on: rat model of ischemic infarct; conditions: cited from earlier work
[2] = tested on: fluid percussion model of head trauma; conditions: diffuse neuronal injury; cited from earlier work
[3] = tested on: diffuse anoxia injury model in rats; conditions: cited from earlier work; for amount of neuronal injury: diffuse anoxia injury model in rats; for entry into the cerebrospinal fluid (CSF): rats
[4] = tested on: rat model of ischemic stroke; assay: Infarct volumes by treatment groups in a rat model of ischemic stroke; format: in vivo; set-up: unit not given here; conditions: for Infarct volume, Contra, Average / Infarct volume, Infarct, Average: average of 5 animals; for Infarct volume, Contra / Infarct volume, Infarct: individual animals; for Infarct volume, Contralateral / Infarct volume, Ipsilateral: rounded average
Excerpt: Additional studies using a validated rat model for ischemic stroke have also been conducted. These studies made comparisons in stroke volumes between five different treatment groups: a. Ischemic stroke model in aged rats; no reperfusion; no neuroprotection b. Ischemic stroke model in aged rats; no reperfusion; neuroprotection administered c. Ischemic stroke model in aged rats; reperfusion (tPA) given; no neuroprotection d. Ischemic model in young rats; no reperfusion; no neuroprotection e. Ischemic stroke model in young rats; reperfusion (tPA) given; no neuroprotection

[Cl-].[Cl-].[Mg+2] [MgCl2, magnesium chloride]
average size of infarcts ([1]; intraperitoneal injection, rat model of ischemia, reduced from 165 mm^3): 122 mm^3 | size of the measured infarct ([1]; intraperitoneal, 1 mmol/kg immediately after MCA occlusion): decreased the size of the measured infarct | extent of neuronal injury [2]: limits the extent of neuronal injury | amount of neuronal injury [3]: alter the amount of neuronal injury | entry into the cerebrospinal fluid (CSF) [3]: able to enter the cerebrospinal fluid (CSF)

O=S(=O)([O-])[O-].[Mg+2] [magnesium sulfate]
amount of neuronal injury [3]: alter the amount of neuronal injury | entry into the cerebrospinal fluid (CSF) [3]: able to enter the cerebrospinal fluid (CSF)

tissue plasminogen activator [IPA]
Infarct volume, Contra, Average ([4]; aged rats, untreated aged 1.412): 1.086 | Infarct volume, Infarct, Average ([4]; aged rats, untreated aged 12.918): 8.868 | Infarct volume, Contra ([4]; aged rats): 1.29 and 0.87 and 0.81 and 1.39 and 1.07 | Infarct volume, Infarct ([4]; aged rats): 9.58 and 7.26 and 7.85 and 8.95 and 10.7 | Infarct volume, Contralateral ([4]; aged rats, untreated aged 1.4): 1.1 | Infarct volume, Ipsilateral ([4]; aged rats, untreated aged 12.9): 8.9 | Infarct volume, Contra, Average ([4]; young rats, untreated young 1.028): 1.178 | Infarct volume, Infarct, Average ([4]; young rats, untreated young 8.012): 4.208 | Infarct volume, Contra ([4]; young rats): 1.07 and 1.28 and 1.66 and 0.52 and 1.36 | Infarct volume, Infarct ([4]; young rats): 3.75 and 4.35 and 3.64 and 4.1 and 5.2 | Infarct volume, Contralateral ([4]; young rats, untreated young 1): 1.2 | Infarct volume, Ipsilateral ([4]; young rats, untreated young 8): 4.2
